Like-named read-outs stand apart in the source and are kept apart here.
Experiments:
HT-29 cells = details: free CPT 9 mg/kg i.p., n=5
Text: Antitumor efficacy study of SAPDs at the same dose on a HT-29 tumor model. […] When the averaged tumor size reached 75-95 mm^3, mice were randomly divided into six groups. […] The tumor volumes and body weights were monitored and recorded every two or three days. The tumor volume was estimated by measuring the length and width with calipers and using the equation “tumor volume=(length×width^2)/2”. Mice were euthanized once the tumor volume reached 1000 mm^3.

[1] = Tolerability of free CPT in mice; format: in vivo
Procedure: Due to its poor water solubility, free CPT is often given in a formulation containing a mixture of DMSO/ethanol/PEG-400/water at a volumetric ratio of 1:1:2:1 (24). […] We eventually identified an intraperitoneal injection of 4.5 mg/kg CPT to be a tolerable dosage for animal studies. In contrast, the MTD of TT 1 SPs in healthy athymic nude mice, identified in a dose escalation study through systemic administration, is within the range of 24-30 mg/kg (CPT equivalent) (FIG. 3D and FIG. 13). […] Four out of five mice survived for up to 37 d (9 mg/kg) and 43 d (15 mg/kg).

[2] = Biodistribution study in U87 MG tumor-bearing mice; format: in vivo, nude mice; details: nude, mouse, in vivo, 4.5 mg/kg, 4.5 mg/kg i.v., 1 hour after injection
Procedure: Mice bearing subcutaneous tumors were established by injecting 100 μL of a U87 MG suspension in serum-free medium (2×10^6 cells) into the right flank of the mice. When the tumor reached a size of −200 mm^3, the mice were randomly grouped and received one of the following 3 treatments via intravenous injection (n=18 for each group): free CPT (4.5 mg/kg), TT 1 (4.5 mg/kg), and TT 1 (15 mg/kg). Three mice from each group were euthanized at pre-determined time points (1, 2, 4, 8, 12, and 24 h). Plasma, major organs, and tumors were collected and stored at −80° C. for further analysis. To determine the amount of free CPT and TT 1 in the samples, 100 mg tumors were mixed with 900 μL acetonitrile (containing 0.1% TFA) and then homogenized using Precellys Evolution Super Homogenizer (Bertin Technologies, France) for 3×40 s (5,600 shakes/min). The resulting suspensions were centrifuged and the supernatants were collected. For plasma, 50 μL of sample was mixed with 450 μL acetonitrile (containing 0.1% TFA) and sonicated for 1 min. The supernatants were collected using centrifugation. All samples were filtered through a 0.22 μm membrane before analysis by a UPLC system (Waters ACQuity™ Ultra Performance LC) equipped with a reverse-phase column (ACQuity UPLC@BEH, C18, 1.7 μm 2.1×150 mm) and a fluorescence detector (ACQuity FLR, Ex/Em=362/430 nm). The column was flushed with a mixture of water (0.1% TFA) and acetonitrile (0.1% TFA) at 0.3 mL/min with the following gradient: 5% acetonitrile (0-1 min), 5-95% acetonitrile (1-5 min), 95% acetonitrile (5-8 min), 95-5% acetonitrile (8-9 min), and 5% acetonitrile (9-10 min). Peaks with retention times of 5.4 min (free CPT) and 6.9 min (TT 1) were monitored.

[3] = tested on: human glioblastoma U87 MG cells; experiment: Antitumor efficacy study for systemic delivery, subcutaneous U87 MG tumor; format: in vivo, athymic nude mice; details: controls: free CPT 4.5 mg/kg i.p.; irinotecan 60 mg/kg i.p.
Procedure: A total of 2×10^6 human glioblastoma U87 MG cells were subcutaneously injected into the right shoulder of athymic nude mice (8-9 weeks old). The mice were used for the efficacy study after three to four weeks when the tumor had reached about 190-250 mm^3 in size. […]. Water insoluble free CPT was dissolved/suspended in a mixture of DMSO/ethanol/PEG-400/water (1:1:2:1). CPT (4.5 mg/kg) and irinotecan (60 mg/kg) were administered by intraperitoneal injection, while freshly prepared TT 1 solutions of various doses were administered intravenously by tail vein injection every 4 days for a total of three doses (days 1, 5, and 9). […]. Tumor volumes were measured and recorded every other day. The body weights were measured and recorded every day or every other day. The tumor volume was determined by measuring the tumor in two dimensions with calipers and using the formula “tumor volume=(length×width^2)/2”. Each animal was euthanized once the tumor volume reached the predetermined end point size of 2000 mm^3.

[4] = tested on: U87 MG human brain cancer cells; experiment: cells; details: U-87 MG, 48 h
Procedure: (§1) The human brain cancer cell line U87 MG was a generous gift from Dr. Wirtz (ChemBE, JHU). DMEM (Invitrogen) containing 10% fetal bovine serum (FBS, Invitrogen) and 1% antibiotics (Invitrogen) was used for the culture of the U87 MG cells. Cancer cells were incubated at 37° C. in a humidified incubator (Oasis, Caron, Marietta, Ohio, USA) with an atmosphere of 5% CO2. […] U87 MG cells were seeded onto 96-well plates (5000 cells/well) and allowed to attach overnight. […] The stock solutions were then diluted with fresh medium to achieve final CPT concentrations of 0.1, 1, 10, 100, 500, 1000, 5000 and 10000 nM. After dilution, the nanotube-containing media were used to incubate cells immediately. Medium containing the same concentration of free CPT ranging from 0.1 to 10000 nM was also used to incubate the cells, with non-treated cells (solvent only) as the control group. In addition, irinotecan at the concentration of 0.1, 1, 5, 10, 50, 100 and 500 μM was employed as a second control. After 48 h incubation, the cell viability was evaluated using the SRB method according to the manufacturer's protocols (TOX-6, Sigma, St. Louis, Mo.).

[5] = Gel release of TT 2 nanotube hydrogel; format: physicochemical; details: 10 mM in 1×-DPBS, 37° C., over 31 days
Procedure: TT 2 was dissolved in water and hydrogel formation triggered by the addition of 10×-DPBS to give a final TT 2 concentration of 10 mM in 1×-DPBS. 200 μL of the hydrogel was placed at the bottom of centrifuge tube and allowed to re-gel overnight. Three replicate experiments were prepared together and incubated at 37° C. Fresh 1×-DPBS (300 μL) was layered on top of the hydrogel and was refreshed at predetermined time points: 1, 2, 4, 7, 10, 13, 16, 19, 22, 25, 28, and 31 days. The samples were frozen with liquid nitrogen and stored at −30° C. until analysis. The amount of TT 2 in the top DPBS layer was determined by analytical RP-HPLC using the conditions described in the previous paragraph. The cumulative release of TT 2 from its hydrogels was calculated and plotted as a percentage of the total amount of hydrogel. The conjugate was seen to be released almost linearly from the hydrogel with ˜10% of the prodrugs being released over the 31-day period.

[6] = tested on: U87 MG human brain cancer cells; details: 48 h
Procedure: as §1

[7] = Zeta potential measurement; format: physicochemical; details: 1×-DPBS buffer
Procedure: TT solutions of 200 μM in 1×-DPBS buffer (pH=7.4) were prepared by directly mixing identical volumes of a 400 μM aqueous TT solution and 2×-DPBS buffer (pH=7.4). In some embodiments, solutions at a concentration of 2 mM in PBS buffer (pH=7.4) were prepared and aged overnight prior to zeta potential measurement. TT solutions of 200 μM in 1×-DPBS buffer (pH=5.0) were prepared by mixing identical volumes of a 400 μM aqueous TT solution and 2×-DPBS buffer (pH=5.0), which was pretreated with 6 M HCl. The zeta potential measurements were performed on a Zetasizer Nano ZS90 (Malvern Instruments Ltd., UK). The prepared solutions were loaded in capillary cells and equilibrated for 2 min prior to measurement. The average values and their standard deviations are calculated from three replicate measurements. The zeta potential of the assembled structures was obtained by measuring the electrophoretic movement of the nanostructures under the applied electric field, where the movement velocity is determined by phase analysis light scattering. Variations of the zeta potential value over time were determined by measuring the solutions at different aging time points (1, 2, 4 and 7 days) and are plotted in FIG. 10.

[8] = TEM / cryo-TEM imaging of self-assembled nanostructures (dimensions); format: physicochemical; details: self-assembled nanotubes in water, 200 μM, n>40
Procedure: About 200 μM stock solutions of corresponding TTs in water were prepared by dissolution of the lyophilized powders. After aging overnight, TEM samples were prepared by depositing 7 μL of the appropriate solution onto a carbon-coated copper grid (Electron Microscopy Services, Hatfield, Pa., USA), wicking away the excess solution with a small piece of filter paper. Next, 7 μL of a 2 wt % uranyl acetate aqueous solution was deposited on the surface for 30 seconds, wicking away the excess solution with filter paper. The grids were then air-dried overnight at room temperature prior to imaging. Bright-field TEM imaging was performed using an FEI Tecnai 12 TWIN Transmission Electron Microscope operated at an acceleration voltage of 100 kV. All TEM images were acquired by a SIS Megaview III wide-angle CCD camera or 16 bit 2K×2K FEI Eagle bottom mount camera.
Cryo-TEM imaging was performed using higher sample concentrations of 800 μM (compared with 200 μM for conventional TEM imaging). Extended imaging times can result in damage to the vitreous ice film caused by the electron beam and so higher concentrations can allow a more rapid visualization that reduces this likelihood. About 6 μL of the appropriate solution was dropped onto a lacey carbon-film-supported TEM copper grid (Electron Microscopy Services, Hatfield, Pa., USA). All the TEM grids used for cryo-TEM imaging were pretreated with plasma air to render the lacey carbon film hydrophilic. A thin film of the sample solution was produced using a Vitrobot with a controlled humidity chamber (FEI). After loading of the sample solution, the lacey carbon grid was blotted using preset parameters and plunged instantly into a liquid ethane reservoir precooled by liquid nitrogen. The vitrified samples were then transferred to a cryo-holder and cryo-transfer stage that was cooled by liquid nitrogen. To prevent sublimation of vitreous water, the cryo-holder temperature was maintained below −170° C. during the imaging process. All images were recorded by a Tecnai 12 microscope with a cryo-holder, and the images were acquired by a 16 bit 2K×2K FEI Eagle bottom mount camera.
Self-Assembly of SAPDs from TT1. To study the self-assembly behavior of the SAPDs, we directly dissolved the lyophilized powders in deionized water at a concentration of 2 mM and neutral pH.

[9] = tested on: U87 MG human glioblastoma; experiment: Antitumor efficacy study for local delivery (intratumoral TT 2 hydrogel); format: in vivo, athymic nude mice; details: 10 mM hydrogel, 30 μL intratumoral
Procedure: The hydrogel formation of TT 2 in vivo was investigated through subcutaneous injection of a TT 2 gel. […] The tumor model used in local delivery is the same U87 MG human glioblastoma line used in the systemic delivery study described above. Mice were randomly selected (n=7) and treated with TT 2 hydrogel at a fixed dose (10 mM, 30 μL) through intratumoral injection. Tumor volumes and body weights were measured and recorded every other day. The tumor volume was determined by measuring the tumor in two dimensions with calipers and using the formula “tumor volume=(length×width^2)/2”. Each animal was euthanized once the tumor […] reached the predetermined end point size of 2000 mm^3.
The antitumor efficacy of TT 2 hydrogel was then evaluated in a subcutaneous U87 MG xenograft model via intratumoral injection of a 10 mM TT 2 SP hydrogel (30 μL). All seven mice studied experienced tumor regression with a minimum mean tumor volume of 36 mm^3 at day 25 and survived for more than 45 days (FIG. 3K).

## CC[C@@]1(O)C(=O)OCc2c1cc1n(c2=O)Cc2cc3ccccc3nc2-1 [CPT, Camptothecin, reference compound]
HT-29 cells
  treatment outcome (deaths): death of all five mice after the second dose
[1]; 9 mg/kg i.v., DMSO/ethanol/PEG-400/water formulation
  outcome of intravenous administration: immediate death
[1]; intraperitoneal injection
  tolerable dosage: 4.5 mg/kg
[1]; mouse, in vivo, intraperitoneal
  MTD: ~5 mg/kg
[2]; read-out: drug concentration in plasma
  concentration at 1 h: 37 ng/g
[2]; read-out: drug concentration in tumor
  concentration at 1 h: 92 ng/g
[3]
  median survival: 17 days
[4]
  IC50: 62 nM

## CC[C@]1(OC(=O)OCCSSC[C@@H](NC(C)=O)C(=O)N[C@@H](CCCCNC(=O)[C@@H](CSSCCOC(=O)O[C@]2(CC)C(=O)OCc3c2cc2n(c3=O)Cc3cc4ccccc4nc3-2)NC(C)=O)C(=O)N[C@@H](CCCCN)C(=O)N[C@@H](CCCCN)C(N)=O)C(=O)OCc2c1cc1n(c2=O)Cc2cc3ccccc3nc2-1 [TT 2]
[5]
  cumulative release of TT 2 from hydrogel: ~10%
[6]
  IC50: 123 nM
[7]; pH 5.0, 200 μM
  ζ-Potential: 31.8 mV
[7]; pH 7.4, 200 μM
  ζ-Potential: 22.1 mV
[8]
  Diameters measured by conventional TEM: 8.1 ± 0.6 nm
[9]
  mice with complete tumor regression: Four out of seven
  survival to end point of tumor-free mice: around 140 d
[9]; day 25, n=7
  minimum mean tumor volume: 36 mm^3
[9]; n=7
  survival of all treated mice: more than 45 days

## CC[C@]1(OC(=O)OCCSSC[C@@H](NC(C)=O)C(=O)N[C@@H](CCCCNC(=O)[C@@H](CSSCCOC(=O)O[C@]2(CC)C(=O)OCc3c2cc2n(c3=O)Cc3cc4ccccc4nc3-2)NC(C)=O)C(=O)N[C@@H](CCC(=O)O)C(=O)N[C@@H](CCC(=O)O)C(N)=O)C(=O)OCc2c1cc1n(c2=O)Cc2cc3ccccc3nc2-1 [TT 3]
[7]
  ζ-potential at pH 7.4 versus pH 5.0: more negative ζ-potentials at pH 7.4 than 5.0
[8]
  Diameters measured by conventional TEM: 8.4 ± 0.9 nm

## CC[C@]1(OC(=O)OCCSSC[C@@H](NC(C)=O)C(=O)N[C@@H](CCCCNC(=O)[C@@H](CSSCCOC(=O)O[C@]2(CC)C(=O)OCc3c2cc2n(c3=O)Cc3cc4ccccc4nc3-2)NC(C)=O)C(=O)N[C@@H](CCCCN)C(=O)N[C@@H](CCC(=O)O)C(N)=O)C(=O)OCc2c1cc1n(c2=O)Cc2cc3ccccc3nc2-1 [TT 4]
[7]; pH 5.0, 200 μM
  ζ-Potential: −2.3 mV
[7]; pH 7.4, 200 μM
  ζ-Potential: −18.8 mV
[8]
  Diameters measured by conventional TEM: 8.3 ± 0.9 nm

## CC[C@]1(OC(=O)OCCSSC[C@@H](NC(C)=O)C(=O)N[C@@H](CCCCNC(=O)[C@@H](CSSCCOC(=O)O[C@]2(CC)C(=O)OCc3c2cc2n(c3=O)Cc3cc4ccccc4nc3-2)NC(C)=O)C(=O)N[C@H](CCCCNC(=O)CN2CCN(CC(=O)O)CCN(CC(=O)O)CCN(CC(=O)O)CC2)C(N)=O)C(=O)OCc2c1cc1n(c2=O)Cc2cc3ccccc3nc2-1 [TT 5]
[7]
  ζ-potential at pH 7.4 versus pH 5.0: more negative ζ-potentials at pH 7.4 than 5.0
[8]
  Diameters measured by conventional TEM: 8.4 ± 0.9 nm
